SMILES strings stand for the structures.

Ki and GI50 data for 16 molecules are collected here from patent US11596639B2, “Substituted indole Mcl-1 inhibitors” (Vanderbilt University, priority 2016, dated 2023).

For assay [1], the target named is Mcl-1 (Homo sapiens (Human), UniProt Q07820). As to the kind of experiment: TR-FRET binding assay, FITC-Bak peptide and MBP-tagged Mcl-1. The following applies: read-out: Ki for Inhibition of Mcl-1 by TR-FRET assay. Here is the method:
Compounds are diluted in DMSO in a 16-point, semilog serial dilution scheme. […] The plate was mixed and incubated for 3 hours at room temperature. […] TR-FRET signal is plotted and IC50 and Ki values are calculated in the same manner as the fluorescence polarization anisotropy based competition assays.
(In TR-FRET formats the signal depends on donor and acceptor labels being close together.)

For assay [2], the system named is H929 human cancer cell lines. As to the kind of experiment: Cellular viability / proliferation (Cell TiterGlo, 72 h). In kind it is cell-based. Particulars: Homo sapiens, NCI-H929, 72 h, read-out: GI50 on cellular proliferation of H929 human cancer cell lines, H929 cells, 72 h, Cell TiterGlo, 10% FBS. A digest of the protocol: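 Top dose 50 μM, serially diluted 2-fold, applied one day after seeding (1,000 cells/well, 10% FBS), DMSO below 1%.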
On the technique in general: Cellular ATP, detected with luciferase, serves as a proxy for viable cell number.

Sequence of Mcl-1 (Q07820 172-327): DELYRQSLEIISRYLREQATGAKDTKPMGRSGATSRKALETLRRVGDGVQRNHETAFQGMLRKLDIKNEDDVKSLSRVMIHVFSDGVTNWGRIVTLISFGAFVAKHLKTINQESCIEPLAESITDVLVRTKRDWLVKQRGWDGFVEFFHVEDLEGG

Regarding `C=C(C)c1ccnc(Cn2c(C(=O)O)cc3cc(C)cc(N4C[C@@H](C)n5c(c(CCCOc6cc(C)c(Cl)c(C)c6)c6ccc(Cl)c(-c7c(C)nn(C)c7C)c65)C4=O)c32)c1` [Example 641, (R)-7-(7-chloro-10-(3-(4-chloro-3,5-dimethylphenoxy)propyl)-4-methyl-1-oxo-6-(1,3,5-trimethyl-1H-pyrazol-4-yl)-3,4-dihydropyrazino[1,2-a]indol-2(1H)-yl)-5-methyl-1-((4-(prop-1-en-2-yl)pyridin-2-yl)methyl)-1H-indole-2-carboxylic acid], the Ki in assay [1] was below 0.2 nM. Moreover, the GI50 in assay [2] stood at 350 nM.
Taken in the same sequence, the figures for `Cc1cc(OCCCc2c3n(c4c(-c5c(C)ncnc5C)c(Cl)ccc24)[C@H](C)CN(c2cn(C)c4ccc(-c5ncccn5)cc24)C3=O)cc(C)c1Cl` [Example 642, (R)-7-Chloro-10-(3-(4-chloro-3,5-dimethylphenoxy)propyl)-6-(4,6-dimethylpyrimidin-5-yl)-4-methyl-2-(1-methyl-5-(pyrimidin-2-yl)-1H-indol-3-yl)-3,4-dihydropyrazino[1,2-a]indol-1(2H)-one] were 3 nM and 790 nM.
Taken in the same sequence, the figures for `Cc1cc(OCCCc2c3n(c4c(-c5c(C)nn(C)c5C)c(Cl)ccc24)[C@H](C)CN(c2cn(C)c4ccc(-c5nc(C)n(C)n5)cc24)C3=O)cc(C)c1Cl` [Example 643, (R)-7-Chloro-10-(3-(4-chloro-3,5-dimethylphenoxy)propyl)-2-(5-(1,5-dimethyl-1H-1,2,4-triazol-3-yl)-1-methyl-1H-indol-3-yl)-4-methyl-6-(1,3,5-trimethyl-1H-pyrazol-4-yl)-3,4-dihydropyrazino[1,2-a]indol-1(2H)-one] were 1.3 nM and 340 nM.
`Cc1cc(OCCCc2c3n(c4c(-c5c(C)ncnc5C)c(Cl)ccc24)[C@H](C)CN(c2cn(C)c4ncc(C(=O)O)nc24)C3=O)cc(C)c1Cl` [Example 644, (R)-7-(7-chloro-10(3-(4-chloro-3,5-dimethylphenoxy)propyl)-6-(4,6-dimethylpyrimidin-5-yl)-4-methyl-1-oxo-3,4-dihydropyrazino[1,2-a]indol-2(1H)-yl)-5-methyl-5H-pyrrolo[2,3-b]pyrazine-2-carboxylic acid]: the Ki in assay [1] was below 0.2 nM. Moreover, the GI50 in assay [2] turned out to be 1900 nM.
Taken in the same sequence, the figures for `Cc1cc(OCCCc2c3n(c4c(-c5c(C)nn(C)c5C)c(Cl)ccc24)[C@H](C)CN(c2cn(Cc4ccc(F)c(F)c4)c4ccc(C(=O)O)cc24)C3=O)cc(C)c1Cl` [Example 645, (R)-3-(7-chloro-10-(3-(4-chloro-3,5-dimethylphenoxy)propyl)-4-methyl-1-oxo-6-(1,3,5-trimethyl-1H-pyrazol-4-yl)-3,4-dihydropyrazino[1,2-a]indol-2(1H)-yl)-1-(3,4-difluorobenzyl)-1H-indole-5-carboxylic acid] were 3.3 nM and 3700 nM.
Taken in the same sequence, the figures for `Cc1cc(OCCCc2c3n(c4c(-c5c(C)nn(C)c5C)c(Cl)ccc24)[C@H](C)CN(c2cn(C)c4ccc(-c5ncn(-c6ncccn6)n5)cc24)C3=O)cc(C)c1Cl` [Example 646, (R)-7-Chloro-10-(3-(4-chloro-3,5-dimethylphenoxy)propyl)-4-methyl-2-(1-methyl-5-(1-(pyrimidin-2-yl)-1H-1,2,4-triazol-3-yl)-1H-indol-3-yl)-6-(1,3,5-trimethyl-1H-pyrazol-4-yl)-3,4-dihydropyrazino[1,2-a]indol-1(2H)-one] were 0.3 nM and 240 nM.
For `Cc1cc(OCCCc2c3n(c4c(-c5c(C)nn(C)c5C)c(Cl)ccc24)[C@H](C)CN(c2cn(C)c4ccc(-c5ncn(-c6ccccn6)n5)cc24)C3=O)cc(C)c1Cl` [Example 647, (R)-7-Chloro-10-(3-(4-chloro-3,5-dimethylphenoxy)propyl)-4-methyl-2-(1-methyl-5-(1-(pyridin-2-yl)-1H-1,2,4-triazol-3-yl)-1H-indol-3-yl)-6-(1,3,5-trimethyl-1H-pyrazol-4-yl)-3,4-dihydropyrazino[1,2-a]indol-1(2H)-one], in assay [1], the Ki was 0.32 nM. The GI50 in assay [2] was determined as 1100 nM.
As to `Cc1cc(OCCCc2c3n(c4c(-c5c(C)nn(C)c5C)c(Cl)ccc24)[C@H](C)CN(c2cn(C)c4ccc(-c5nc6ccccn6n5)cc24)C3=O)cc(C)c1Cl` [Example 648, (R)-2-(5-([1,2,4]Triazolo[1,5-a]pyridin-2-yl)-1-methyl-1H-indol-3-yl)-7-chloro-10-(3-(4-chloro-3,5-dimethylphenoxy)propyl)-4-methyl-6-(1,3,5-trimethyl-1H-pyrazol-4-yl)-3,4-dihydropyrazino[1,2-a]indol-1(2H)-one], in assay [1], the Ki stood at 0.23 nM. Moreover, in assay [2], the GI50 came out at 310 nM.
Turning to `COC1CCN(Cc2cc(N3C[C@@H](C)n4c(c(CCCOc5cc(C)c(Cl)c(C)c5)c5ccc(Cl)c(-c6c(C)nn(C)c6C)c54)C3=O)c3c(c2)cc(C(=O)O)n3C)CC1` [Example 649, (R)-7-(7-chloro-10-(3-(4-chloro-3,5-dimethylphenoxy)propyl)-4-methyl-1-oxo-6-(1,3,5-trimethyl-1H-pyrazol-4-yl)-3,4-dihydropyrazino[1,2-a]indol-2(1H)-yl)-5-((4-methoxypiperidin-1-yl)methyl)-1-methyl-1H-indole-2-carboxylic acid], the Ki in assay [1] is below 0.2 nM. Further, in assay [2], the GI50 is below 200 nM.
Take `COCCOC1CCN(Cc2cc(N3C[C@@H](C)n4c(c(CCCOc5cc(C)c(Cl)c(C)c5)c5ccc(Cl)c(-c6c(C)nn(C)c6C)c54)C3=O)c3c(c2)cc(C(=O)O)n3C)CC1` [Example 650, (R)-7-(7-chloro-10-(3-(4-chloro-3,5-dimethylphenoxy)propyl)-4-methyl-1-oxo-6-(1,3,5-trimethyl-1H-pyrazol-4-yl)-3,4-dihydropyrazino[1,2-a]indol-2(1H)-yl)-5-((4-(2-methoxyethoxy)piperidin-1-yl)methyl)-1-methyl-1H-indole-2-carboxylic acid]: the Ki in assay [1] is below 0.2 nM. In addition, in assay [2], the GI50 was 210 nM.
Taken in the same sequence, the figures for `Cc1cc(OCCCc2c3n(c4c(-c5c(C)ncnc5C)c(Cl)ccc24)[C@H](C)CN(c2cn(C)c4ccc(C(=O)O)nc24)C3=O)cc(C)c1Cl` [Example 651, (R)-3-(7-chloro-10-(3-(4-chloro-3,5-dimethylphenoxy)propyl)-6-(4,6-dimethylpyrimidin-5-yl)-4-methyl-1-oxo-3,4-dihydropyrazino[1,2-a]indol-2(1H)-yl)-1-methyl-1H-pyrrolo[3,2-b]pyridine-5-carboxylic acid] were below 0.2 nM and 290 nM.
Taken in the same sequence, the figures for `COCCOc1cc(N2C[C@@H](C)n3c(c(CCCOc4cc(C)c(Cl)c(C)c4)c4ccc(Cl)c(-c5c(C)nn(C)c5C)c43)C2=O)c2c(c1)c(C(=O)O)cn2Cc1cc(C)cc(C)n1` [Example 652, (R)-7-(7-chloro-10-(3-(4-chloro-3,5-dimethylphenoxy)propyl)-4-methyl-1-oxo-6-(1,3,5-trimethyl-1H-pyrazol-4-yl)-3,4-dihydropyrazino[1,2-a]indol-2(1H)-yl)-1-((4,6-dimethylpyridin-2-yl)methyl)-5-(2-methoxyethoxy)-1H-indole-3-carboxylic acid] were 0.28 nM and 370 nM.
Consider `Cc1cc(OCCCc2c3n(c4c(-c5c(C)nn(C)c5C)c(Cl)ccc24)[C@H](C)CN(c2cn(C)c4ccc(-c5cncnc5)cc24)C3=O)cc(C)c1Cl` [Example 653, (R)-7-Chloro-10-(3-(4-chloro-3,5-dimethylphenoxy)propyl)-4-methyl-2-(1-methyl-5-(pyrimidin-5-yl)-1H-indol-3-yl)-6-(1,3,5-trimethyl-1H-pyrazol-4-yl)-3,4-dihydropyrazino[1,2-a]indol-1(2H)-one], for which, in assay [1], the Ki is 15 nM. In assay [2], the GI50 was 1900 nM.
Regarding `COCCOc1cc(N2C[C@@H](C)n3c(c(CCCOc4cc(C)c(Cl)c(C)c4)c4ccc(Cl)c(-c5c(C)nn(C)c5C)c43)C2=O)c2c(c1)c(C(=O)O)cn2C` [Example 654, (R)-7-(7-chloro-10-(3-(4-chloro-3,5-dimethylphenoxy)propyl)-4-methyl-1-oxo-6-(1,3,5-trimethyl-1H-pyrazol-4-yl)-3,4-dihydropyrazino[1,2-a]indol-2(1H)-yl)-5-(2-methoxyethoxy)-1-methyl-1H-indole-3-carboxylic acid], the Ki in assay [1] is 0.34 nM. For the same molecule, in assay [2], the GI50 was 340 nM.
Taken in the same sequence, the figures for `COCCOc1cc(N2C[C@@H](C)n3c(c(CCCOc4cc(C)c(Cl)c(C)c4)c4ccc(Cl)c(-c5c(C)nn(C)c5C)c43)C2=O)c2c(c1)c(C(=O)O)cn2CCOC` [Example 656, (R)-7-(7-chloro-10-(3-(4-chloro-3,5-dimethylphenoxy)propyl)-4-methyl-1-oxo-6-(1,3,5-trimethyl-1H-pyrazol-4-yl)-3,4-dihydropyrazino[1,2-a]indol-2(1H)-yl)-5-(2-methoxyethoxy)-1-(2-methoxyethyl)-1H-indole-3-carboxylic acid] were below 0.2 nM and 250 nM.
Taken in the same sequence, the figures for `Cc1cc(N2C[C@@H](C)n3c(c(CCCOc4cc(C)c(Cl)c(C)c4)c4ccc(Cl)c(-c5c(C)nn(C)c5C)c43)C2=O)c2c(c1)cc(C(=O)O)n2CCO` [Example 657, (R)-7-(7-chloro-10-(3-(4-chloro-3,5-dimethylphenoxy)propyl)-4-methyl-1-oxo-6-(1,3,5-trimethyl-1H-pyrazol-4-yl)-3,4-dihydropyrazino[1,2-a]indol-2(1H)-yl)-1-(2-hydroxyethyl)-5-methyl-1H-indole-2-carboxylic acid] were below 0.2 nM and 610 nM.

What is called Ki is the equilibrium dissociation constant of an inhibitor or competing ligand from its target.
